Measured values from patent US12286437B2, “Cardiac sarcomere inhibitors” (Cytokinetics, Inc., priority 2021, dated 2025).
Where two headings read alike, the source gives them in different places.

Columns and labels:
[1] = target: T1, CYP2C8 (Homo sapiens, UniProt P10632); experiment: Time-dependent inhibition of CYP2C8 in human liver microsomes; format: in vitro ADME; details: for (% Activity NADPH T0)/(% Activity NADPH T30): fold change; for activity at 30 min, 25 µM / activity at 0 min, 25 µM / activity at 30 min, 50 µM / activity at 0 min, 50 µM: pooled human liver microsomes, human liver microsomes; for activity at 30 min, 25 µM / activity at 30 min, 50 µM: after 30 minutes incubation, read-out: % Activity NADPH T30; for activity at 0 min, 25 µM / activity at 0 min, 50 µM: time zero, read-out: % Activity NADPH T0
T1 construct: Pooled human microsomes and selective CYP probe substrates were used; from tissue; host or cells: pooled human liver microsomes
T1 sequence (P10632 1-490): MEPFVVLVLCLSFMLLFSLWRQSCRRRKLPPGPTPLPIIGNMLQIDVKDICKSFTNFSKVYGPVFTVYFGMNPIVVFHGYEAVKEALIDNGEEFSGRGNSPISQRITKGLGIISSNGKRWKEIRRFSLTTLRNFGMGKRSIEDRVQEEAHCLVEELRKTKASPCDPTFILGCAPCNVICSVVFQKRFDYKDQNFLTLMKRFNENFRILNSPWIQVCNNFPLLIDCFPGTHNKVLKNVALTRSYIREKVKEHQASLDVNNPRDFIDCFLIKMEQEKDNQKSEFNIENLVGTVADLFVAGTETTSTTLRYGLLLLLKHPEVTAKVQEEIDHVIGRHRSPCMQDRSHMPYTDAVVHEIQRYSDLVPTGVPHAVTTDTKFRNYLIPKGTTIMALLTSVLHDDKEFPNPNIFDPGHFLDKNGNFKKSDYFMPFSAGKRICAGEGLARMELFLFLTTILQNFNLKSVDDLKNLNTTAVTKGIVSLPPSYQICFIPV
Experimental: (§1) An assessment of the time-dependent Inhibitory Potential of the test compounds against Principal Human Cytochrome P450 Isozymes using Human Liver Microsomes was also carried out using standard methods (Grimm et al, Drug Metab. Dispos., July; 37(7):1355-70. doi: 10.1124/dmd.109.026716, 2009). Pooled human microsomes and selective CYP probe substrates were used for in vitro assessment of test compounds at 25 and 50 μM as time-dependent inhibitors of […] human hepatic cytochrome P450 isozymes (CYP1A2, 2B6, 2C9, 2C19, 2D6, and 3A4). LC-MS/MS was used to quantify metabolite formation. The inhibition of each P450 enzyme in human liver microsomes was measured as the percentage decrease in the activity of marker metabolite formation as measured by LC-MS/MS compared to non-inhibited controls (=100% activity) at time zero and after 30 minutes incubation. The occurrence of any time dependent inhibition was then expressed as the fold change in enzyme activity at time zero relative to the activity after 30 minutes incubation.

[2] = Dog cassette dosing pharmacokinetics; format: in vivo, beagle dogs; details: male, beagle, plasma, IV; for Vd: read-out: Vss; for half-life: read-out: t½ (converted)
Experimental: Non-naïve male beagle dogs (8 months to 3 years of age, body weight 8-14 kg) sourced from Jiangsu Johnsen Bioresource CO. and/or Beijing Rixinkeji CO., LTD and/or Beijing Marshall Biotechnology CO., LTD were used in this study. All animals for IV administration had free access to food and water. The IV dose solution was prepared in 10% DMA/50% PG/40% HPβCD solution (40% w/v aqueous HPβCD) at a concentration of 0.2 mg/mL. Concentrations of IV dose was measured at the end of the study. PK parameters were calculated using the nominal dose values if the measured values were within 20% of the nominal values. Blood samples were collected by venipuncture of peripheral veins except the dosing vein at pre-dose, 5 15, 30 min, 1, 2, 4, 6, 8 and 24 h post-dose. Blood samples were centrifuged and resultant plasma was frozen for bioanalysis. Plasma samples were stored at −80° C. before analysis. Plasma samples were analyzed for compound concentrations using the LC/MS/MS method. Briefly, a 50 μL aliquot of each plasma sample was mixed with 100 μL of acetonitrile that contained an internal standard. The mixture was vortexed and centrifuged. Ten (10) μL of the resulting solution was injected onto a reverse-phase C18 column and the resultant peaks detected on a LC/MS/MS equipped with a turbo ionspray ionization source. Sample concentrations below the limit of quantification (BLQ) were treated as zero for PK calculations. PK parameters were estimated from individual animals using noncompartmental analysis of the concentration-time data (Phoenix WinNonLin software, version 64; Pharsight, Mountain View, CA). The elimination rate constant (k) was calculated as the absolute value of the slope of the linear regression of logarithm (log) of the concentration versus time for the last three data points of the concentration-time profiles. Apparent elimination half-life (t1/2) values were calculated as ln(2)/k. Area under the concentration-time curve (AUC) values were estimated using linear trapezoidal method. AUCt values were calculated from the dosing time to the last measurable concentration. AUC∞ values were calculated as the sum of the corresponding AUCt and the ratio of the last detectable concentration divided by k. Plasma clearance (CL) was calculated from Dose/AUC∞. Mean resident time extrapolated to infinity (MRT∞) was estimated by moment analysis. Vss was calculated from MRT∞×CL. Maximum concentration (Cmax) and time to reach Cmax (tmax) were recorded as observed. As this was a cross-over study, bioavailability was calculated dAUC∞,po/dAUC∞,iv×100% where dAUC was the dose normalized AUC value from the same animal given IV and PO dose. Data for compounds tested are provided in Table G. Compounds tested were prepared in accordance with the synthetic procedures described herein.

[3] = target: T2, CYP2C19 (Homo sapiens, UniProt P33261); experiment: Time-dependent inhibition of CYP2C19 in human liver microsomes; format: in vitro ADME; details: for (% Activity NADPH T0)/(% Activity NADPH T30): fold change; for activity at 30 min, 25 µM / activity at 0 min, 25 µM / activity at 30 min, 50 µM / activity at 0 min, 50 µM: pooled human liver microsomes, human liver microsomes; for activity at 30 min, 25 µM / activity at 30 min, 50 µM: after 30 minutes incubation, read-out: % Activity NADPH T30; for activity at 0 min, 25 µM / activity at 0 min, 50 µM: time zero, read-out: % Activity NADPH T0
T2 construct: Pooled human microsomes and selective CYP probe substrates were used; from tissue; host or cells: pooled human liver microsomes
Experimental: as §1

[4] = target: T3, CYP3A4 (Homo sapiens, UniProt P08684); experiment: Time-dependent inhibition of CYP3A4 in human liver microsomes (testosterone and midazolam probes); format: in vitro ADME; details: for (% Activity NADPH T0)/(% Activity NADPH T30): fold change; for activity at 30 min, 25 µM / activity at 30 min, 50 µM: human, after 30 minutes incubation, read-out: % Activity NADPH T30; for activity at 30 min, 25 µM / activity at 30 min, 50 µM / activity at 0 min, 25 µM / activity at 0 min, 50 µM: pooled human liver microsomes; for activity at 0 min, 25 µM / activity at 0 min, 50 µM: human liver microsomes, time zero, read-out: % Activity NADPH T0
T3 construct: Pooled human microsomes and selective CYP probe substrates were used; from tissue; host or cells: pooled human liver microsomes
Experimental: as §1

[5] = CYP3A4-M (midazolam probe substrate), 25 μM
[6] = CYP3A4-M (midazolam probe substrate), 50 μM
[7] = CYP3A4-T (testosterone probe substrate), 25 μM
[8] = CYP3A4-T (testosterone probe substrate), 50 μM

T3 sequence (P08684 whole entry): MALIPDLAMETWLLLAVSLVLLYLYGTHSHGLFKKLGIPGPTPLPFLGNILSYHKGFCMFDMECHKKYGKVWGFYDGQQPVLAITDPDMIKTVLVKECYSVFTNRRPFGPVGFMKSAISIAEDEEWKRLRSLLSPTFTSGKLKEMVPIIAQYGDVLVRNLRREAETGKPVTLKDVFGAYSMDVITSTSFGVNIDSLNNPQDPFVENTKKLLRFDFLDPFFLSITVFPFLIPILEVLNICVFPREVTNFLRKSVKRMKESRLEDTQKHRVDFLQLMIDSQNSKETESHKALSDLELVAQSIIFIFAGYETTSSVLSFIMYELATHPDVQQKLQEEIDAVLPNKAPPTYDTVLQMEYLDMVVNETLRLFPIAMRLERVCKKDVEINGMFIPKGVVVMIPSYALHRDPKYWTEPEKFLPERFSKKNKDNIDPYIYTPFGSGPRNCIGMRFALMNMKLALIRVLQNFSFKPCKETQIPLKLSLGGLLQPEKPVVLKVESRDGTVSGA
T2 sequence (P33261 whole entry): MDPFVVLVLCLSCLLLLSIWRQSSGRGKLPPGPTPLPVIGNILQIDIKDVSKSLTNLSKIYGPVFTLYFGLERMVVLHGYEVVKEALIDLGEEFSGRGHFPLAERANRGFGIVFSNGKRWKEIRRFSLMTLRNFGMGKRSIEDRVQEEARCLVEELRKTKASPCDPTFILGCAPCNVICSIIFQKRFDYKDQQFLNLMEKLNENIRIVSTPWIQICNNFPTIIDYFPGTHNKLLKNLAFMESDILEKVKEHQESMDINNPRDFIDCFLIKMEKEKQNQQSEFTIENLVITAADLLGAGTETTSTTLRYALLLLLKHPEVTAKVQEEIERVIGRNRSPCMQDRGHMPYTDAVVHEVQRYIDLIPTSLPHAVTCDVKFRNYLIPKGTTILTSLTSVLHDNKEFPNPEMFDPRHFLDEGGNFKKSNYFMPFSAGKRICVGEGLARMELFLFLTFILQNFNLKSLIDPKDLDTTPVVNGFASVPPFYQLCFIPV

| (% Activity NADPH T0)/(% Activity NADPH T30) ([1]; CYP2C8, 25 μM) | (% Activity NADPH T0)/(% Activity NADPH T30) ([1]; CYP2C8, 50 μM) | activity at 30 min, 25 µM ([1]; CYP2C8, 25 μM) [%] | activity at 0 min, 25 µM ([1]; CYP2C8, 25 μM) [%] | activity at 30 min, 50 µM ([1]; CYP2C8, 50 μM) [%] | activity at 0 min, 50 µM ([1]; CYP2C8, 50 μM) [%] | clearance [2] [L/h/kg] | Vd [2] [L/kg] | half-life [2] [h] | (% Activity NADPH T0)/(% Activity NADPH T30) ([3]; CYP2C19, 25 μM) | (% Activity NADPH T0)/(% Activity NADPH T30) ([3]; CYP2C19, 50 μM) | activity at 30 min, 25 µM ([3]; CYP2C19, 25 μM) [%] | activity at 0 min, 25 µM ([3]; CYP2C19, 25 μM) [%] | activity at 30 min, 50 µM ([3]; CYP2C19, 50 μM) [%] | activity at 0 min, 50 µM ([3]; CYP2C19, 50 μM) [%] | (% Activity NADPH T0)/(% Activity NADPH T30) [4, 5] | (% Activity NADPH T0)/(% Activity NADPH T30) [4, 6] | (% Activity NADPH T0)/(% Activity NADPH T30) [4, 7] | (% Activity NADPH T0)/(% Activity NADPH T30) [4, 8] | activity at 30 min, 25 µM [4, 5] [%] | also measured | SMILES |
| --- | --- | --- | --- | --- | --- | --- | --- | --- | --- | --- | --- | --- | --- | --- | --- | --- | --- | --- | --- | --- | --- |
| 1.0 | 2.0 | 88 | 87 | 53 | 104 | 0.556 | 6.17 | 9.86 | 1.2 | 1.3 | 83 | 101 | 77 | 102 | 1.1 | 1.9 | 1.1 | 1.4 | 69 | activity at 30 min, 50 µM [4, 6]: 35%; activity at 30 min, 25 µM [4, 7]: 87%; activity at 30 min, 50 µM [4, 8]: 68%; activity at 0 min, 25 µM [4, 5]: 75%; activity at 0 min, 50 µM [4, 6]: 67%; activity at 0 min, 25 µM [4, 7]: 100%; activity at 0 min, 50 µM [4, 8]: 98% | C[C@H]1CC[C@H](N2CC(=O)N(Cc3ccc(F)c(F)c3)C3(CN(C(N)=O)C3)C2=O)CC1 [Compound 5, 5-(3,4-difluorobenzyl)-8-((1r,4r)-4-methylcyclohexyl)-6,9-dioxo-2,5,8-triazaspiro[3.5]nonane-2-carboxamide] |
| 1.0 | 1.0 | 117 | 117 | 112 | 110 | 0.936 | 6.26 | 5.66 | 0.9 | 1.0 | 99 | 94 | 92 | 93 | 1.0 | 1.0 | 1.0 | 1.0 | 100 | activity at 30 min, 50 µM [4, 6]: 100%; activity at 30 min, 25 µM [4, 7]: 100%; activity at 30 min, 50 µM [4, 8]: 100%; activity at 0 min, 25 µM [4, 5]: 100%; activity at 0 min, 50 µM [4, 6]: 100%; activity at 0 min, 25 µM [4, 7]: 100%; activity at 0 min, 50 µM [4, 8]: 100% | CC(C)N1CC(=O)N(Cc2ccc(Cl)c(F)c2)C2(CN(c3cccnn3)C2)C1=O [Compound 8, 5-(4-chloro-3-fluorobenzyl)-8-isopropyl-2-(pyridazin-3-yl)-2,5,8-triazaspiro[3.5]nonane-6,9-dione] |
